In experiment [1] the target is T1, recombinant human monoamine oxidase A (hMAO-A) (Homo sapiens, UniProt P21397).
T1 sequence (P21397 1-527): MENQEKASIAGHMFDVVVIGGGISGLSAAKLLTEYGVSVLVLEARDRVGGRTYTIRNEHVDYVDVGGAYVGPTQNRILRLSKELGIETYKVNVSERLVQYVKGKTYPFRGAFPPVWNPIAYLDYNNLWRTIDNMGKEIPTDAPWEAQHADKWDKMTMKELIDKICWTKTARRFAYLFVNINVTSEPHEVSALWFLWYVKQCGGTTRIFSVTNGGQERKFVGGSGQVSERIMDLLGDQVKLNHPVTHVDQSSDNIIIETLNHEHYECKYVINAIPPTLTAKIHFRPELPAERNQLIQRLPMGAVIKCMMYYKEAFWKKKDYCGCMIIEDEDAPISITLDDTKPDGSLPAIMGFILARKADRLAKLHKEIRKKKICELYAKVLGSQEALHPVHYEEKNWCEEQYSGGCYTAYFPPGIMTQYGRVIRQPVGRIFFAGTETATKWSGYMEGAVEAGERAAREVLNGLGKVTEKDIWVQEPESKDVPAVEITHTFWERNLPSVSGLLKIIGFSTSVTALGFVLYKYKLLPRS
Description: hMAO-A enzyme kinetics (Lineweaver-Burk, Dixon, secondary plots). The format is biochemical. The following applies: for Ki: from secondary plots; for Inhibition Type, hMAO-A: Lineweaver-Burk and Dixon plots.

Experiment [2] concerns the target T2, recombinant human monoamine oxidase B (hMAO-B) (Homo sapiens, UniProt P27338).
T2 sequence (P27338 1-520): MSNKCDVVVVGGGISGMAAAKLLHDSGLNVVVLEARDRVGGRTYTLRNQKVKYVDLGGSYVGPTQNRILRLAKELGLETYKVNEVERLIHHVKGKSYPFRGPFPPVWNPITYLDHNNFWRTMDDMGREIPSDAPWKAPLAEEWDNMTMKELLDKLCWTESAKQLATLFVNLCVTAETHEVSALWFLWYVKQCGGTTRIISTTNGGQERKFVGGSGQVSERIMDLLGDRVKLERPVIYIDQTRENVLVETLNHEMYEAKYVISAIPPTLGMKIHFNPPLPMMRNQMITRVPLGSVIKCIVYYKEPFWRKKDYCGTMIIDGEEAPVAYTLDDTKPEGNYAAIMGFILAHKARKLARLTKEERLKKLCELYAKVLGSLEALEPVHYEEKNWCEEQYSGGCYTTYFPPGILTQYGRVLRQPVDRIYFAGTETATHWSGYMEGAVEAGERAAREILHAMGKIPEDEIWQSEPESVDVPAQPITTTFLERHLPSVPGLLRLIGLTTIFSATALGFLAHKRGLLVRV
Kind of experiment: hMAO-B inhibition, MAO-Glo chemiluminescent assay. The class given is biochemical. Particulars: mean ± SD of triplicate experiments.

For experiment [3], the target named is T2, recombinant human monoamine oxidase B (hMAO-B). Kind of experiment: hMAO-B enzyme kinetics (Lineweaver-Burk, Dixon, secondary plots). The format is biochemical. The following applies: for Ki: from secondary plots; for Inhibition Type, hMAO-B: Lineweaver-Burk and Dixon plots.
Experiment [4] has as its system recombinant human MAO-A (hMAO-A). Details: method as in earlier work. The following applies: ref 27 (Dittman et al., 2004); read-out: IC50, recombinant human MAO-A (literature); cited from earlier work.
Experiment [5] addresses T1, recombinant human monoamine oxidase A (hMAO-A). Description: hMAO-A inhibition, MAO-Glo chemiluminescent assay. Particulars: for IC50: mean ± SD of triplicate experiments; for SI (selectivity index): ratio of the IC50 value for hMAO-A inhibition to that for hMAO-B inhibition. The class given is biochemical.
Experiment [6] addresses T3, human M4 muscarinic acetylcholine receptor (hM4R) (Homo sapiens, UniProt P08173).
T3 construct: host or cells: CHO cells
T3 sequence (P08173 1-479): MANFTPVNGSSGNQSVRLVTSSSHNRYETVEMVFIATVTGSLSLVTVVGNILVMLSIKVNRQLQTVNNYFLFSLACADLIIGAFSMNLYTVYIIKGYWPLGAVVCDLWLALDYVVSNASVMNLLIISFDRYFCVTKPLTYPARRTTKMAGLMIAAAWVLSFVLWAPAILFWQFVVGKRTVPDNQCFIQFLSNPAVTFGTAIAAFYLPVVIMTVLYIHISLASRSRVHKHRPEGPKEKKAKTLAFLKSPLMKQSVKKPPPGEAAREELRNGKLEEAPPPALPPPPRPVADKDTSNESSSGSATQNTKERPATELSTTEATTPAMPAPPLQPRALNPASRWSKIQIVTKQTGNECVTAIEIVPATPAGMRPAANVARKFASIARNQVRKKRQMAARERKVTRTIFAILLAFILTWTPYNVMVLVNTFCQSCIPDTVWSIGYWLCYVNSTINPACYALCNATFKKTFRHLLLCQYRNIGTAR
Kind of experiment: M4 (h) functional GPCR assay, antagonist effect, cAMP HTRF. The class given is cell-based. The following applies: CHO cells, cAMP; read-out: Reference IC50, M4 reference antagonist. As for the experimental part: The cellular and nuclear receptor functional assays were carried out at Eurofins Cerep (Le Bois I’ Eveque, France) following the in-house protocols (catalog items G029-1262, G029-1474, G030-1658, G030-1659, G031-1243, G031-1244, G032-1670, G032-1671, G033-4217, and G033-4212). The experimental methods for the assays were as described in the previous reports and the general methodology is summarized in the Supplementary Information Table S1. Recombinant human Chinese hamster ovary (CHO) cells and rat basophilic leukemic (RBL) cells were transfected with the GPCR genes of interest (hM1R, hM2R, hM3R, hM4R, and hM5R). The functional assay provided the readouts based on the measurements of calcium ion mobilization (for the Gαq/11-coupled receptors) and cAMP level (for the Gαi/o-coupled receptors).
Stable CHO cells expressing the transfected cDNA of human M2 receptors were suspended in a medium containing HBSS buffer complemented with 20-mM HEPES buffer (pH 7.4) and 500-µM IBMX, whereas the stable human M4 receptor cloned CHO cells were distributed in HBSS buffer with 20-mM HEPES/NaOH (pH 7.4), 70-mM NaCl, 5.33-mM KCl, 1.25-mM CaCl2, 0.5-mM MgCl2, 0.41-mM MgSO4, 0.441-mM KH2PO4, 0.3-mM Na2HPO4, 0.1% glucose, and 500-µM IBMX. […] The cAMP level was calculated as the ratio of the signal measured at 665 nm to that measured at 620 nm. […]
Assay Source Stimulus Incubation Measured Detection References […]
(TR-FRET usually uses a lanthanide donor and a delayed reading to cut background.)

The values below come from publication PMC8301926 (Biomolecules, 2021).

“And” between values parts separate entries of the source, which are not always exact repeats. Equal entries are not always repeated. Where two headings read alike, the source gives them in different places.

By IC50 is commonly meant the point on the concentration scale where inhibition reaches its midpoint. For the compound `C[C@H]1COC2=C1C(=O)C(=O)c1c2ccc2c1CCCC2(C)C` [Cryptotanshinone], the Ki was determined as 4.99 ± 0.34 µM in experiment [1] (Kic, hMAO-A); 38.1 ± 1.79 µM in experiment [1] (Kiu, hMAO-A); 9.33 ± 0.1 µM in experiment [3] (Kic, hMAO-B). The “Inhibition Type, hMAO-A” value in experiment [1] is listed as “Mixed”; in experiment [1] (listed as 3), “mixed-mode”. For the same compound, the IC50 was 23.1 ± 2.1 µM in experiment [2]; 84 µM in experiment [4]; < 10 µM and 8.7 µM in experiment [5] (IC50, hMAO-A). Also, the figures for the “Inhibition Type, hMAO-B” value in experiment [3] and in experiment [3] (listed as 3) were “Competitive” and “competitive enzyme inhibition”, respectively. The “SI (selectivity index)” value in experiment [5] was determined as 0.38.
Turning to `Cc1cccc2c3c(ccc12)C1=C(C(=O)C3=O)[C@@H](C)CO1` [Dtan I, dihydrotanshinone I, reference compound], in experiment [4], the IC50 is 23 µM.
Turning to `CCOC(=O)c1c(C)[nH]c2ccc3c(c12)CN1CCc2cc(OC)ccc2C1O3` (stereo not shown) [PD 102807, reference compound], the IC50 in experiment [6] amounted to 0.036 µM.
For `Cc1coc2c1C(=O)C(=O)c1c-2ccc2c1CCCC2(C)C` [Tanshinone IIA], the “Inhibition Type, hMAO-A” value in experiment [1] is “Mixed”; in experiment [1] (listed as 2) it was “mixed-mode”. The Ki is 0.72 ± 0.13 µM in experiment [1] (read-out: Kic, hMAO-A); 2.74 ± 0.37 µM in experiment [1] (read-out: Kiu, hMAO-A); 12.9 ± 1.14 µM in experiment [3] (read-out: Kic, hMAO-B); 13.7 ± 0.58 µM in experiment [3] (read-out: Kiu, hMAO-B). Besides, the concentration for half-maximal inhibition (IC50) is < 25 µM and 17.5 µM in experiment [2]; greater than 400 µM in experiment [4]; < 10 µM and 6.08 µM in experiment [5] (read-out: IC50, hMAO-A). In addition, the “Inhibition Type, hMAO-B” value is reported as “Non-competitive” in experiment [3] and “noncompetitive inhibition” in experiment [3] (listed as 2). The “SI (selectivity index)” value in experiment [5] turned out to be 0.35.
